Source: patent US11021444B2, “Antiviral compounds” (priority 2013, dated 2021)
Like-named read-outs stand apart in the source and are kept apart here.

How the values were obtained:
[1] = tested on: Respiratory Syncytial Virus (RSV) long strain; experiment: microbe, parasite or virus in culture; format: cell-based; settings: human respiratory syncytial virus, Tables A and B list compounds by EC50 band
Method in brief: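 HEp-2 cells infected with 100 TCID50 virus per well, compounds in duplicate, 9-point 1/3 dilutions from 100 μM or 1 μM, 1% DMSO. After 5 days at 37 °C, cell viability (CPE protection) read by CCK-8 absorbance at 450 nm, 630 nm background.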

[2] = biological target: recombinant RSV complex (Human respiratory syncytial virus A, UniProt P28887); experiment: RSV Polymerase Inhibition Assay; format: biochemical
Sequence of recombinant RSV complex (P28887 whole entry): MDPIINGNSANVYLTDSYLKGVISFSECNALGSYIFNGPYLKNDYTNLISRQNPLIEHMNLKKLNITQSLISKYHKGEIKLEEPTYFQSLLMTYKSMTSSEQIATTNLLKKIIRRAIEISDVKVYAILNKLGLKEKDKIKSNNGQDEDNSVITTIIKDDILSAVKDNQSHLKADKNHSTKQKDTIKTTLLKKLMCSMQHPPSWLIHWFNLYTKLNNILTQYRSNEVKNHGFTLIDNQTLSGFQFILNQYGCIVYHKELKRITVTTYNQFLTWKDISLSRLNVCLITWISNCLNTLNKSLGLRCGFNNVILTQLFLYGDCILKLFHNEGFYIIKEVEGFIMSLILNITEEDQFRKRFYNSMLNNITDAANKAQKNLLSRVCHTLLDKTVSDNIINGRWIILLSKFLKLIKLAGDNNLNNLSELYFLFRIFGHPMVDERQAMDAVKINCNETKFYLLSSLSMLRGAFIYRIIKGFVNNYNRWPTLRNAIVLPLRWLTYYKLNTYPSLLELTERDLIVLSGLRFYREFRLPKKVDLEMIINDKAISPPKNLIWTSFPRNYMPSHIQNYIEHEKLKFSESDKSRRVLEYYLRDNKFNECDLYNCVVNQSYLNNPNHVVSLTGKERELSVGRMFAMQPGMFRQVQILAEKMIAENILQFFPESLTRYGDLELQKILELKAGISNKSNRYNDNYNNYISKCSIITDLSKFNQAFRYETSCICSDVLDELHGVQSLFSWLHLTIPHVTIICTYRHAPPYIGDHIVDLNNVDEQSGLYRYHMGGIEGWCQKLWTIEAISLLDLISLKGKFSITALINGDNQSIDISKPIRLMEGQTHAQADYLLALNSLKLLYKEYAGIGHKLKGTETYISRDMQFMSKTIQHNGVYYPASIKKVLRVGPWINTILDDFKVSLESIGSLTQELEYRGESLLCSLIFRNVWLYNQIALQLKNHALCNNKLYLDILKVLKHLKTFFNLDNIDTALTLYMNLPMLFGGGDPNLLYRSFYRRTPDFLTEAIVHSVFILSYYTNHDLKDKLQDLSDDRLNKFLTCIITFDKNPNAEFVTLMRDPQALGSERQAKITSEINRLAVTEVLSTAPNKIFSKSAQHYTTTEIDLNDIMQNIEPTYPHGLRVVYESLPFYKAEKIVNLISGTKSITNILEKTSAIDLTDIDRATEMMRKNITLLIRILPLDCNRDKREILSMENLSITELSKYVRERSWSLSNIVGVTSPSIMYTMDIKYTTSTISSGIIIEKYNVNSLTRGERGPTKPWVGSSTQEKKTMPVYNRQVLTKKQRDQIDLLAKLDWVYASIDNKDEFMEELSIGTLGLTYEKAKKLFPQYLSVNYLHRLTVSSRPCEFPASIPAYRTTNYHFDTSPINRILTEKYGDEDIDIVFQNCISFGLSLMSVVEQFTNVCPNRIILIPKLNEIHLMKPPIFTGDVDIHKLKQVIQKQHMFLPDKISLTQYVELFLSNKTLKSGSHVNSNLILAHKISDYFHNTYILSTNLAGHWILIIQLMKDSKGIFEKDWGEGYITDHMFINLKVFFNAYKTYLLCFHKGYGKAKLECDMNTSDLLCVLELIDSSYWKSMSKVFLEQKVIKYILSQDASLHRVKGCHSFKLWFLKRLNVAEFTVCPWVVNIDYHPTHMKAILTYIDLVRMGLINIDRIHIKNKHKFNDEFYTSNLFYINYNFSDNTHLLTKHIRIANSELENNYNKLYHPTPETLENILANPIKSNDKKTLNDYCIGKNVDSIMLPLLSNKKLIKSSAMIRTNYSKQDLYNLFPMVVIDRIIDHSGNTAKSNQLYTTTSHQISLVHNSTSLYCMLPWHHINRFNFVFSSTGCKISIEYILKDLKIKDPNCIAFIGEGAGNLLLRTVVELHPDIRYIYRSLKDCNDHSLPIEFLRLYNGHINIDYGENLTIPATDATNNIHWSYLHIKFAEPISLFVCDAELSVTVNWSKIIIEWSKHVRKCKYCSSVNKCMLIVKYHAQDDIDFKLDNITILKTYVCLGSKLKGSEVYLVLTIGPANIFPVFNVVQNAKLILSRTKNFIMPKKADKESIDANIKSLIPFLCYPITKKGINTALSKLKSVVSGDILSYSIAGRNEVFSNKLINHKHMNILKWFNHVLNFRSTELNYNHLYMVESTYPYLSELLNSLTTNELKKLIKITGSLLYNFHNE
Sequence of recombinant RSV complex (P03421 whole entry, further chain): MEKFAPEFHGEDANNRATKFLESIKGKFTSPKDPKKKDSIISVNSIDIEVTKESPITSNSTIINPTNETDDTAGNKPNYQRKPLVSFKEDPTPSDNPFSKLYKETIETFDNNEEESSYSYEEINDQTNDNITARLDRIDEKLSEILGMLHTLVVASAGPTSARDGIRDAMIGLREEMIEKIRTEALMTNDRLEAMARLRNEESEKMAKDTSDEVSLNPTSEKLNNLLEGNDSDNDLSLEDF
Method in brief: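 10 nM recombinant RSV polymerase complex in Tris-HCl pH 7.5, 6 mM MgCl2 with RNA oligonucleotide template and radionucleotides, incubated 2 h at 30 °C with increasing inhibitor concentrations. Reaction stopped with EDTA; radiolabeled RNA product counted by scintillation.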

[3] = tested on: RSV replicon; experiment: microbe, parasite or virus in culture; format: cell-based; settings: human respiratory syncytial virus, read-out: EC50, the concentration of the drug required for reducing RSV replicon RNA by 50%
[4] = Cytotoxicity Determination (CCK-8, without addition of virus); format: cell-based; settings: human, 50% cytotoxicity concentration (CC50)
Method in brief: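 HEp-2 cells were seeded at 1,500 cells/well one day before compound addition. Compounds were tested without virus in duplicate over 7 points from 100 μM in 1/2 steps, with 1% final DMSO, 5 days at 37 °C, 5% CO2. Viability was read by CCK-8 after 3-4 hours.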

[5] = HEp-2, 120 h, read-out: 50% effective concentration (EC50), HEp-2 cells infected with RSV long strain, 5 days, CCK-8 readout
[6] = 120 h, read-out: 50% effective concentration (EC50), HEp-2 cells infected with RSV long strain, 5 days, CCK-8 readout

| SMILES | EC50 [1, 5] [µM] | IC50 [2] [µM] | EC50 [3] [µM] | CC50 at 5 days [4] [µM] | EC50 [1, 6] [µM] |
| --- | --- | --- | --- | --- | --- |
| COc1cc(C(=O)NCC(O)(c2ccc(CN)c(-c3ccc(F)cc3)n2)C(F)(F)F)ccc1OC1CC1 (centres unmarked) [Compound 514] | < 1 | < 1 | < 1 | 10 to 100 |  |
| COc1cc(C(=O)NCC(O)(c2cc(C(C)(C)NC3CCC3)cc(-c3ccc(F)c(Cl)c3)n2)C(F)(F)F)ccc1OC1CC1 (centres unmarked) [Compound 575] | < 1 | < 1 | < 1 | 10 to 100 |  |
| COCC(C)(N)c1cc(-c2ccc(F)c(Cl)c2)nc(C(O)(CNC(=O)c2ccc(OC3CC3)c(OC)c2)C(F)(F)F)c1 (centres unmarked) [Compound 535] | < 1 | < 1 | < 1 | 10 to 100 |  |
| CNC(C)(C)c1cc(-c2ccc(F)c(Cl)c2)nc(C(O)(CNC(=O)c2ccc(O[C@H]3CCNC3=O)c(OC)c2)C(F)(F)F)c1 (some centres unmarked) [Compound 485] | < 1 | < 1 | < 1 | 10 to 100 |  |
| COc1cc(C(=O)NCC(F)(c2ccc(OC)c(-c3ccc(F)c(Cl)c3)n2)C(F)(F)F)ccc1OC[C@@H](C)O (some centres unmarked) [Compound 342] | < 1 | < 1 | < 1 | 10 to 100 |  |
| COc1cc(C(=O)NCC(C)(O)c2cccc(-c3csc4c(F)cccc34)n2)ccc1OCCO (centres unmarked) [Compound 143] | < 1 | < 1 | < 1 | 10 to 100 |  |
| COc1cc(C(=O)NCC(O)(c2cc(C(C)(C)N)cc(-c3ccc(F)c(Cl)c3)n2)C(F)(F)F)ccc1OCCOC(=O)C(C)C (centres unmarked) [Compound 490] | < 1 | < 10 | < 1 | 10 to 100 |  |
| COc1cc(C(=O)NCC(O)(c2cc(CN)cc(-c3ccc(F)c(Cl)c3)n2)C(F)(F)F)ccc1OC1CC1 (centres unmarked) [Compound 327] | < 1 | < 1 | < 1 | 10 to 100 |  |
| CCNC(C)(C)c1cc(-c2ccc(F)c(Cl)c2)nc(C(O)(CNC(=O)c2ccc(OC[C@H](C)O)c(OC)c2)C(F)(F)F)c1 (some centres unmarked) [Compound 391] | < 1 | < 1 | < 1 | 10 to 100 |  |
| COc1cc(C(=O)NCC(O)(c2ccc(OC)c(-c3ccc(F)c(Cl)c3)n2)C(F)(F)F)ccc1OCC(F)F (centres unmarked) [Compound 373] | < 1 | < 1 | < 1 | > 100 |  |
| COc1cc(C(=O)NCC(O)(c2cc3c(c(-c4ccc(C(F)(F)F)cc4)n2)OCC3(C)N)C(F)(F)F)ccc1OCCO (centres unmarked) [Compound 645] | < 1 | < 1 | < 1 | 10 to 100 |  |
| COc1cc(C(=O)NCC(O)(CF)c2ccc(OC)c(-c3ccc(F)c(Cl)c3)n2)ccc1OCCO (centres unmarked) [Compound 424] | < 1 | < 1 | < 1 | 10 to 100 |  |
| COc1cc(C(=O)NCC(C)(O)c2cc3c(c(-c4ccc(F)c(Cl)c4)n2)OCC3(C)C)ccc1OCCO (racemic) [Compound 166] | < 1 | < 1 | < 1 | 10 to 100 |  |
| COc1cc(C(=O)NCC(C)(O)c2ccc(OC)c(-c3c[nH]c4c(F)cccc34)n2)ccc1OCCO (racemic) [Compound 117] | < 1 | < 1 | < 1 | 10 to 100 |  |
| COc1cc(C(=O)NCC(O)(c2cc(C(C)(C)NS(C)(=O)=O)cc(-c3ccc(F)c(Cl)c3)n2)C(F)(F)F)ccc1OC1CC1 (centres unmarked) [Compound 330] |  | < 1 | < 1 | 10 to 100 | < 1 |
| COc1cc(C(=O)NCC(O)(c2cc(C(C)(C)N)cc(-c3ccc(F)cc3)n2)C2CC2)ccc1OCCO (centres unmarked) [Compound 634] | < 1 | < 1 | < 1 | > 100 |  |
| COc1cc(C(=O)NCC(O)(c2ccc(OC)c(-c3ccc(F)c(Cl)c3)n2)C(F)F)ccc1OC1CC1 (centres unmarked) [Compound 445] | < 1 | < 1 | < 1 | 10 to 100 |  |
| COc1cc(C(=O)NCC(O)(c2cc(C(C)(C)NC(C)=O)cc(-c3ccc(F)cc3)n2)C(F)(F)F)ccc1OCCO (centres unmarked) [Compound 611] | < 1 | < 1 | < 1 | > 100 |  |
| COc1cc(C(=O)NCC(O)(c2cc(C(C)(N)CF)cc(-c3ccc(F)c(Cl)c3)n2)C(F)(F)F)ccc1OCCO (centres unmarked) [Compound 540] |  | < 1 | < 1 | 10 to 100 | < 1 |

| SMILES | EC50 [1, 5] [µM] | IC50 [2] [µM] | EC50 [3] [µM] | CC50 at 5 days [4] [µM] | EC50 [1, 6] [µM] |
| --- | --- | --- | --- | --- | --- |
| COc1cc(C(=O)NCC(O)(c2cc3c(c(-c4ccc(F)cc4)n2)OCC3(C)CN)C(F)(F)F)ccc1OC1CC1 (centres unmarked) [Compound 538] | < 1 | < 1 | < 1 | 10 to 100 |  |
| COc1cc(C(=O)NCC(O)(CNC2CC2)c2ccc(OC)c(-c3ccc(F)c(Cl)c3)n2)ccc1OCCO (centres unmarked) [Compound 189] | < 1 | < 1 | < 1 | > 100 |  |
| COc1cc(C(=O)NCC(F)(c2ccc(OC)c(-c3ccc(F)c(Cl)c3)n2)C(F)(F)F)ccc1OCC(N)=O (centres unmarked) [Compound 343] | < 1 | < 1 | < 1 | 10 to 100 |  |
| COc1ccc(C(O)(CNC(=O)c2ccc(OCCO)c(Cl)c2)C2CC2)nc1-c1ccc(F)c(Cl)c1 (centres unmarked) [Compound 425] | < 1 | < 1 | < 1 | 10 to 100 |  |
| COc1cc(C(=O)NCC(O)(c2cc(C(C)(C)N(C)C)cc(-c3ccc(F)c(Cl)c3)n2)C(F)(F)F)ccc1OC1CC1 (centres unmarked) [Compound 400] |  | < 1 | < 1 | 10 to 100 | < 1 |
| COc1ccc(C(=O)NCC(O)(c2ccc(OC)c(-c3ccc(F)c(Cl)c3)n2)C2CC2)cc1OC (centres unmarked) [Compound 359] | < 1 | < 1 | < 1 | 10 to 100 |  |
| COc1cc(C(=O)NCC(=O)c2cc3c(c(-c4ccc(F)c(Cl)c4)n2)OCC3(C)C)ccc1OCCO [Compound 140] |  | < 1 | < 1 | 10 to 100 | < 1 |
| COc1cc(C(=O)NCC(O)(c2cc(C(C)(N)C(N)=O)cc(-c3ccc(F)c(Cl)c3)n2)C(F)(F)F)ccc1OC1CC1 (centres unmarked) [Compound 536] | < 1 | < 1 | < 1 | 10 to 100 |  |
| COc1cc(C(=O)NCC(O)(c2cc3c(c(-c4ccc(F)c(Cl)c4)n2)CNC3(C)C)C(F)(F)F)ccc1OC1CC1 (centres unmarked) [Compound 526] | < 1 | < 1 | < 1 | 10 to 100 |  |
| COc1cc(C(=O)NCC(O)(c2cc3c(c(-c4ccc(F)c(Cl)c4)n2)OCC3(C)C)C2CC2)ccc1OC1CCNC1=O (centres unmarked) [Compound 223] | < 1 | < 1 | < 1 | 10 to 100 |  |
| CNC(C)(C)c1cc(-c2ccc(F)c(Cl)c2)nc(C(O)(CNC(=O)c2ccc(OCCO)c(OC)c2)C(F)(F)F)c1 (centres unmarked) [Compound 491] | < 1 | < 1 | < 1 | 10 to 100 |  |
| COc1cc(C(=O)NC[C@@](O)(c2cc3c(c(-c4ccc(F)cc4)n2)OC[C@@]3(C)N)C(F)(F)F)ccc1OC[C@@H](C)O [Compound 630] |  | < 1 | < 1 | 10 to 100 | < 1 |
| COc1cc(C(=O)NCC(=O)c2cc3c(c(-c4ccc(F)c(Cl)c4)n2)OCCC3)ccc1OCCF [Compound 303] | < 1 | < 1 | < 1 | > 100 |  |
| CNc1cc(-c2ccc(F)c(Cl)c2)nc(C(O)(CNC(=O)c2ccc(OC3CC3)c(OC)c2)C(F)(F)F)c1 (centres unmarked) [Compound 448] | < 1 | < 1 | < 1 | 10 to 100 |  |
| COc1cc(C(=O)NC[C@@](O)(c2cc(C(C)(C)N)cc(-c3ccc(F)cc3)n2)C(F)(F)F)ccc1OCC(N)=O [Compound 561] | 1 to 50 | < 10 | < 1 | > 100 |  |
| COc1cc(C(=O)NCC(F)(CO)c2ccc(OC)c(-c3ccc(F)c(Cl)c3)n2)ccc1OC1CC1 (centres unmarked) [Compound 385] | < 1 | < 1 | < 1 | 10 to 100 |  |
| COc1cc(C(=O)NCC(O)(c2cc(C(N)CO)cc(-c3ccc(F)c(Cl)c3)n2)C(F)(F)F)ccc1OC1CC1 (centres unmarked) [Compound 528] | < 1 | < 1 | < 1 | 10 to 100 |  |
| COc1cc(C(=O)NCC(O)(Cn2ccnc2)c2cc3c(c(-c4ccc(F)c(Cl)c4)n2)OCC3(C)C)cc2cccnc12 (centres unmarked) [Compound 226] | < 1 | < 1 | < 1 | 10 to 100 |  |
| COc1cc(C(=O)NCC(O)(c2cc(C(C)(C)N)cc(-c3ccc(F)c(Cl)c3)n2)C(F)(F)F)cc2cccnc12 (centres unmarked) [Compound 321] | < 1 | < 1 | < 1 | 10 to 100 |  |
